Test results taken from ChEMBL document CHEMBL3400015, “Tertiary amides of Salinomycin: A new group of antibacterial agents against Bacillus anthracis and methicillin-resistant Staphylococcus epidermidis” (Bioorg Med Chem Lett, 2015).
≈ marks a conversion by molar mass, not a printed value.

Columns and labels:
Bacillus anthracis = experiment: Antimicrobial activity against Bacillus anthracis 34F2 after 18 hrs by twofold serial broth dilution method; type: functional; conditions: 34F2, 18 h
Bacillus subtilis [1] = experiment: Genotoxicity in rec-negative Bacillus subtilis M45 at 2 ug/9 mm disc after 24 hrs by disc diffusion method; type: toxicity, organism-based
Bacillus subtilis [2] = experiment: Genotoxicity in rec-positive Bacillus subtilis H17 at 2 ug/9 mm disc after 24 hrs by disc diffusion method; type: toxicity, organism-based

SMILES | MIC (Bacillus anthracis) [µg/mL] | diameter of the inhibition zone (DIZ) (Bacillus subtilis [1]) [mm] | diameter of the inhibition zone (DIZ) (Bacillus subtilis [2]) [mm]
CC[C@@]1([C@H]2O[C@H]([C@H]3O[C@@](O)(CO)[C@H](C)C[C@@H]3C)C[C@H]2C)CC[C@H]([C@@]2(C)CC[C@]3(C[C@H](O)[C@@H](C)[C@@H]([C@H](C)[C@H](OC)[C@@H](C)C(=O)[O-])O3)O2)O1.[Na+] [MONENSIN SODIUM] | 1 |  | 
CC[C@@H](C(=O)[C@@H](C)[C@@H](O)[C@H](C)[C@@H]1O[C@@H]([C@@H](CC)C(=O)[O-])CC[C@@H]1C)[C@H]1O[C@]2(C=C[C@@H](O)[C@]3(CC[C@@](C)([C@H]4CC[C@](O)(CC)[C@H](C)O4)O3)O2)[C@H](C)C[C@@H]1C.[Na+] [SALINOMYCIN SODIUM] | 1 |  | 
O=[N+]([O-])c1cc[n+]([O-])c2ccccc12 [4-NITROQUINOLINE-1-OXIDE] |  | 24 | 13
CC[C@@H](C(=O)[C@@H](C)[C@@H](O)[C@H](C)[C@@H]1O[C@@H]([C@@H](CC)C(=O)O)CC[C@@H]1C)[C@H]1O[C@]2(C=C[C@@H](O)[C@]3(CC[C@@](C)([C@H]4CC[C@](O)(CC)[C@H](C)O4)O3)O2)[C@H](C)C[C@@H]1C [SALINOMYCIN] | 1 (≈ 1.33 µM) | 32 | 31
